In the supplement of paper PMC13380429:

Experiments:
Settings in all cases: 72 h
Caco-2 [1] = experiment: cell viability relative to DMSO; higher = less toxic
Calu-3 [2] = experiment: as above
HepG2 [3] = experiment: as above
U2OS [4] = experiment: as above
Vero E6 [5] = experiment: as above
Caco-2 [6] = experiment: relative viability EC50 (midpoint between 100% and the lowest measured viability); higher = less toxic
Calu-3 [7] = experiment: as above
HepG2 [8] = experiment: as above
U2OS [9] = experiment: as above
Vero E6 [10] = experiment: as above
Caco-2 [11] = experiment: drug sensitivity score (DSS) for viability; higher = more toxic; extreme values may be limits of the assay
Calu-3 [12] = experiment: as above
HepG2 [13] = experiment: as above
U2OS [14] = experiment: as above
Vero E6 [15] = experiment: as above

O=[N+]([O-])c1ccc2nc(COCc3nc4ccc([N+](=O)[O-])cc4[nH]3)[nH]c2c1 [VU591]
cell viability (Caco-2 [1]; 1 nM): 95.8%
cell viability (Caco-2 [1]; 10 nM): 92.2%
cell viability (Caco-2 [1]; 100 nM): 103%
cell viability (Caco-2 [1]; 1000 nM): 84.9%
cell viability (Caco-2 [1]; 10000 nM): 92.8%
cell viability (Calu-3 [2]; 1 nM): 94.6%
cell viability (Calu-3 [2]; 10 nM): 95.3%
cell viability (Calu-3 [2]; 100 nM): 101%
cell viability (Calu-3 [2]; 1000 nM): 100%
cell viability (Calu-3 [2]; 10000 nM): 88.7%
cell viability (HepG2 [3]; 1 nM): 94.1%
cell viability (HepG2 [3]; 10 nM): 95.6%
cell viability (HepG2 [3]; 100 nM): 96.3%
cell viability (HepG2 [3]; 1000 nM): 96.2%
cell viability (HepG2 [3]; 10000 nM): 102%
cell viability (U2OS [4]; 1 nM): 93.2%
cell viability (U2OS [4]; 10 nM): 93.7%
cell viability (U2OS [4]; 100 nM): 99.4%
cell viability (U2OS [4]; 1000 nM): 99%
cell viability (U2OS [4]; 10000 nM): 97.3%
cell viability (Vero E6 [5]; 1 nM): 93.4%
cell viability (Vero E6 [5]; 10 nM): 99.1%
cell viability (Vero E6 [5]; 100 nM): 92.2%
cell viability (Vero E6 [5]; 1000 nM): 94.6%
cell viability (Vero E6 [5]; 10000 nM): 114%
relative viability EC50 (Caco-2 [6]): > 10 µM
relative viability EC50 (Calu-3 [7]): > 10 µM
relative viability EC50 (HepG2 [8]): > 10 µM
relative viability EC50 (U2OS [9]): > 10 µM
relative viability EC50 (Vero E6 [10]): > 10 µM
drug sensitivity score (Caco-2 [11]): 0
drug sensitivity score (Calu-3 [12]): 0
drug sensitivity score (HepG2 [13]): 0
drug sensitivity score (U2OS [14]): 0
drug sensitivity score (Vero E6 [15]): 0

C[C@H]1NCc2cc(-c3ccc4c(=O)c(C(=O)O)cn(C5CC5)c4c3OC(F)F)ccc21 [garenoxacin]
cell viability (Caco-2 [1]; 1 nM): 96.1%
cell viability (Caco-2 [1]; 10 nM): 91.2%
cell viability (Caco-2 [1]; 100 nM): 102%
cell viability (Caco-2 [1]; 1000 nM): 95.9%
cell viability (Caco-2 [1]; 10000 nM): 98.6%
cell viability (Calu-3 [2]; 1 nM): 107%
cell viability (Calu-3 [2]; 10 nM): 92.3%
cell viability (Calu-3 [2]; 100 nM): 105%
cell viability (Calu-3 [2]; 1000 nM): 106%
cell viability (Calu-3 [2]; 10000 nM): 104%
cell viability (HepG2 [3]; 1 nM): 95.2%
cell viability (HepG2 [3]; 10 nM): 97.4%
cell viability (HepG2 [3]; 100 nM): 92.3%
cell viability (HepG2 [3]; 1000 nM): 109%
cell viability (HepG2 [3]; 10000 nM): 99%
cell viability (U2OS [4]; 1 nM): 102%
cell viability (U2OS [4]; 10 nM): 96.3%
cell viability (U2OS [4]; 100 nM): 99.2%
cell viability (U2OS [4]; 1000 nM): 98%
cell viability (U2OS [4]; 10000 nM): 99.7%
cell viability (Vero E6 [5]; 1 nM): 85.3%
cell viability (Vero E6 [5]; 10 nM): 97%
cell viability (Vero E6 [5]; 100 nM): 85.4%
cell viability (Vero E6 [5]; 1000 nM): 91.7%
cell viability (Vero E6 [5]; 10000 nM): 104%
relative viability EC50 (Caco-2 [6]): > 10 µM
relative viability EC50 (Calu-3 [7]): > 10 µM
relative viability EC50 (HepG2 [8]): > 10 µM
relative viability EC50 (U2OS [9]): > 10 µM
relative viability EC50 (Vero E6 [10]): > 10 µM
drug sensitivity score (Caco-2 [11]): 0
drug sensitivity score (Calu-3 [12]): 0
drug sensitivity score (HepG2 [13]): 0
drug sensitivity score (U2OS [14]): 0
drug sensitivity score (Vero E6 [15]): 0

CC(C)C(=O)Nc1ncc(-c2cc(C(F)F)nn2-c2c(Cl)cccc2Cl)s1 [LIMKi-3]
cell viability (Caco-2 [1]; 1 nM): 91.4%
cell viability (Caco-2 [1]; 10 nM): 105%
cell viability (Caco-2 [1]; 100 nM): 92.8%
cell viability (Caco-2 [1]; 1000 nM): 94.6%
cell viability (Caco-2 [1]; 10000 nM): 97.3%
cell viability (Calu-3 [2]; 1 nM): 88.4%
cell viability (Calu-3 [2]; 10 nM): 92.7%
cell viability (Calu-3 [2]; 100 nM): 98.5%
cell viability (Calu-3 [2]; 1000 nM): 118%
cell viability (Calu-3 [2]; 10000 nM): 115%
cell viability (HepG2 [3]; 1 nM): 110%
cell viability (HepG2 [3]; 10 nM): 98%
cell viability (HepG2 [3]; 100 nM): 104%
cell viability (HepG2 [3]; 1000 nM): 106%
cell viability (HepG2 [3]; 10000 nM): 110%
cell viability (U2OS [4]; 1 nM): 98.1%
cell viability (U2OS [4]; 10 nM): 106%
cell viability (U2OS [4]; 100 nM): 96.3%
cell viability (U2OS [4]; 1000 nM): 100%
cell viability (U2OS [4]; 10000 nM): 88.9%
cell viability (Vero E6 [5]; 1 nM): 106%
cell viability (Vero E6 [5]; 10 nM): 101%
cell viability (Vero E6 [5]; 100 nM): 101%
cell viability (Vero E6 [5]; 1000 nM): 92.2%
cell viability (Vero E6 [5]; 10000 nM): 96%
relative viability EC50 (Caco-2 [6]): > 10 µM
relative viability EC50 (Calu-3 [7]): > 10 µM
relative viability EC50 (HepG2 [8]): > 10 µM
relative viability EC50 (U2OS [9]): > 10 µM
relative viability EC50 (Vero E6 [10]): > 10 µM
drug sensitivity score (Caco-2 [11]): 0
drug sensitivity score (Calu-3 [12]): 0
drug sensitivity score (HepG2 [13]): 0
drug sensitivity score (U2OS [14]): 0
drug sensitivity score (Vero E6 [15]): 0

CC[C@]12CCCN3CCc4c(n(c5ccccc45)C(=O)C1)[C@@H]32 [vinburnine]
cell viability (Caco-2 [1]; 1 nM): 94.4%
cell viability (Caco-2 [1]; 10 nM): 98.5%
cell viability (Caco-2 [1]; 100 nM): 106%
cell viability (Caco-2 [1]; 1000 nM): 114%
cell viability (Caco-2 [1]; 10000 nM): 78.6%
cell viability (Calu-3 [2]; 1 nM): 96.8%
cell viability (Calu-3 [2]; 10 nM): 97.4%
cell viability (Calu-3 [2]; 100 nM): 93.7%
cell viability (Calu-3 [2]; 1000 nM): 97.7%
cell viability (Calu-3 [2]; 10000 nM): 88.8%
cell viability (HepG2 [3]; 1 nM): 93.6%
cell viability (HepG2 [3]; 10 nM): 89.9%
cell viability (HepG2 [3]; 100 nM): 102%
cell viability (HepG2 [3]; 1000 nM): 78.7%
cell viability (HepG2 [3]; 10000 nM): 32.2%
cell viability (U2OS [4]; 1 nM): 94.2%
cell viability (U2OS [4]; 10 nM): 97.4%
cell viability (U2OS [4]; 100 nM): 96.7%
cell viability (U2OS [4]; 1000 nM): 95.6%
cell viability (U2OS [4]; 10000 nM): 79.3%
cell viability (Vero E6 [5]; 1 nM): 103%
cell viability (Vero E6 [5]; 10 nM): 96.6%
cell viability (Vero E6 [5]; 100 nM): 100%
cell viability (Vero E6 [5]; 1000 nM): 96.9%
cell viability (Vero E6 [5]; 10000 nM): 86.2%
relative viability EC50 (Caco-2 [6]): > 10 µM
relative viability EC50 (Calu-3 [7]): > 10 µM
relative viability EC50 (HepG2 [8]): 1.37 µM
relative viability EC50 (U2OS [9]): > 10 µM
relative viability EC50 (Vero E6 [10]): > 10 µM
drug sensitivity score (Caco-2 [11]): 0.4
drug sensitivity score (Calu-3 [12]): 0
drug sensitivity score (HepG2 [13]): 6.8
drug sensitivity score (U2OS [14]): 1.2
drug sensitivity score (Vero E6 [15]): 0.4
